Biological target: T1, serum amyloid P component (SAP) (Homo sapiens, UniProt P02743)
T1 construct: gene APCS; pentamer purified from serum; 204-residue subunits
Assay: ITC; crystal structure
Type: binding

T1 sequence (P02743 20-223): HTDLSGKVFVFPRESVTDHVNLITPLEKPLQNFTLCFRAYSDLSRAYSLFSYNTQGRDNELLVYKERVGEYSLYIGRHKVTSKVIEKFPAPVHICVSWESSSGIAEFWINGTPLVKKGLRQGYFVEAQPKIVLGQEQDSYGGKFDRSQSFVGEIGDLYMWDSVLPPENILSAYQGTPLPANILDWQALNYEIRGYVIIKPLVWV

SMILES | Kd [µM]
CC(=O)N1CCC[C@@H]1C(=O)O [N-acetyl-D-proline] | 18.6
CC(=O)N1CCC[C@H]1C(=O)O [N-acetyl-L-proline] | 322
